Results reported in patent US10098870B2 (JENKEM TECHNOLOGY CO., LTD. (BEIJING), priority 2013, dated 2018).
Several values for one entry are separate records, joined by “and”; a condition that tells them apart may be missing. Equal values may be shown once. Entries after “also recorded” stand apart in the source; their conditions may differ. Read-outs that look alike come from different tables or passages of the source.

Experiments:
[1] = test system: H460 human non-small cell lung cancer cells; settings: for T/C (%) RTV / T/C (%) TW: vs physiological saline; for RTV / Tumor weight: 29th day, Mean ± SEM; for Tumor volume: mean ± SE
Protocol: 5.0×10^6 of H460 tumor cells were suspended in 0.1 ml of PBS, inoculated to each nude mouse at the right shoulder, and there were totally 34 mice inoculated. 8 days later the mean tumor volume was desired to reach about 143 mm^3, the mice with a smaller or larger tumor were removed and the remaining 24 mice were divided into groups randomly according to tumor volume and administrated.

[2] = test system: human hepatoma cell plc/prf/5; assay: Anti-tumor effect on subcutaneous transplantation tumor model of plc/prf/5 in NOD/SCID mice (Example 5); assay type: in vivo, NOD/SCID mouse; settings: for Tumor volume: 10 mg/kg (counted with rapamycin) i.v. Q2W×2W, mean ± SE
Protocol: The tumor cells were passaged with digestion by trypsin-EDTA twice a week. The cells in the exponential growth phase were collected, counted, and used for inoculation.
1×10^7 of plc/prf/5 tumor cells were suspended in 0.1 ml of mixed solution (PBS:Matrigel=4:1), inoculated to each NOD/SCID mouse at the right shoulder.
Wherein Q2W×2W represents intravenous injection […] for 2 weeks, the same below. (2) Experimental Results

[3] = test system: human hepatoma cell Hep3B; assay: Anti-tumor effect on xenograft tumor model of Hep3B in immune deficiency mice (Example 7); settings: for T/C (%) RTV / T/C (%) TW: vs physiological saline; for RTV / Tumor weight: 44th day, Mean ± SEM; for Tumor volume: mean ± SE
[4] = test system: A549 human non-small cell lung cancer cells; assay: Anti-tumor effect on xenograft tumor model of A549 in nude mice (Example 10); settings: for T/C (%) RTV / T/C (%) TW: vs physiological saline; for RTV / Tumor weight: 52nd day, Mean ± SEM; for Tumor volume: mean ± SE;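 as to all read-outs here: nude mice bearing A549 xenografts established by inoculating 1.0×10^7 cells in PBS at the right shoulder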
Protocol: A549 cells were cultured with a monolayer in vitro in RPMI1640 medium supplied with heat-inactivated fetal bovine serum with a volume ratio of 10%, and an incubator at 37° C. with the air containing CO2 with a proportion of 5%. The tumor cells were passaged with digestion by trypsin-EDTA twice a week. The cells in the exponential growth phase were collected, counted, and used for inoculation.
1.0×10^7 of A549 tumor cells were suspended in 0.1 ml of PBS, inoculated to each nude mouse at the right shoulder, and there were totally 36 mice inoculated.

**Q.** What does the source list for “monomethoxy polyethylene glycol (20K)-glutamic acid dipeptide-rapamycin conjugate [LPR-2]”?
**A.** TGD (to 1,000 mm^3) ([1]; 30 mg/kg i.v. BIW×3W): >9; T/C (%) RTV ([1]; 30 mg/kg i.v. BIW×3W): 22%; T/C (%) TW ([1]; 30 mg/kg i.v. BIW×3W): 23%; TGD (to 1,000 mm^3) ([1]; 45 mg/kg i.v. QW×3W): >9; T/C (%) RTV ([1]; 45 mg/kg i.v. QW×3W): 25%; T/C (%) TW ([1]; 45 mg/kg i.v. QW×3W): 25%; RTV ([1]; 30 mg/kg i.v. BIW×3W): 3.43 ± 0.32; Tumor weight ([1]; 30 mg/kg i.v. BIW×3W): 364 ± 54 mg; RTV ([1]; 45 mg/kg i.v. QW×3W): 3.86 ± 0.42; Tumor weight ([1]; 45 mg/kg i.v. QW×3W): 406 ± 60 mg; Tumor volume ([1]; day 8 after inoculation, 30 mg/kg i.v. BIW×3W): 143 ± 16 mm^3; Tumor volume ([1]; day 8 after inoculation, 45 mg/kg i.v. QW×3W): 143 ± 18 mm^3; Tumor volume ([1]; day 12 after inoculation, 30 mg/kg i.v. BIW×3W): 213 ± 40 mm^3; Tumor volume ([1]; day 12 after inoculation, 45 mg/kg i.v. QW×3W): 194 ± 33 mm^3; Tumor volume ([1]; day 15 after inoculation, 30 mg/kg i.v. BIW×3W): 208 ± 44 mm^3; Tumor volume ([1]; day 15 after inoculation, 45 mg/kg i.v. QW×3W): 260 ± 46 mm^3; Tumor volume ([1]; day 19 after inoculation, 30 mg/kg i.v. BIW×3W): 259 ± 50 mm^3; Tumor volume ([1]; day 19 after inoculation, 45 mg/kg i.v. QW×3W): 282 ± 46 mm^3; Tumor volume ([1]; day 22 after inoculation, 30 mg/kg i.v. BIW×3W): 343 ± 67 mm^3; Tumor volume ([1]; day 22 after inoculation, 45 mg/kg i.v. QW×3W): 346 ± 53 mm^3; Tumor volume ([1]; day 26 after inoculation, 30 mg/kg i.v. BIW×3W): 459 ± 70 mm^3; Tumor volume ([1]; day 26 after inoculation, 45 mg/kg i.v. QW×3W): 468 ± 57 mm^3; Tumor volume ([1]; day 29 after inoculation, 30 mg/kg i.v. BIW×3W, 30 mg/kg): 505 mm^3 and 505 ± 87 mm^3; Tumor volume ([1]; day 29 after inoculation, 45 mg/kg i.v. QW×3W, 45 mg/kg): 549 mm^3 and 549 ± 76 mm^3; anti-tumor effect (in words) ([2]; 10 mg/kg counted with rapamycin, i.v. Q2W×2W): stronger antitumor activity than that of polyethylene glycol-rapamycin (LPR-1); also recorded: a certain anti-tumor effect; also recorded: obviously the maximum anti-tumor effect; also recorded: anti-tumor effect significantly higher than that of LPR-1; Days for delaying tumor growth (to 1000 mm^3) ([2]; 10 mg/kg i.v. Q2W×2W): >7 days; Tumor volume ([2]; day 24 after inoculation): 353 ± 54 mm^3; Tumor volume ([2]; day 27 after inoculation): 404 ± 89 mm^3; Tumor volume ([2]; day 31 after inoculation): 391 ± 72 mm^3; Tumor volume ([2]; day 34 after inoculation): 456 ± 77 mm^3; Tumor volume ([2]; day 38 after inoculation): 536 ± 77 mm^3; TGD (to 1,000 mm^3) ([3]; 30 mg/kg i.v. BIW×4W): 17; T/C (%) RTV ([3]; 30 mg/kg i.v. BIW×4W): 54%; T/C (%) TW ([3]; 30 mg/kg i.v. BIW×4W): 46%; TGD (to 1,000 mm^3) ([3]; 45 mg/kg i.v. QW×4W): >17; T/C (%) RTV ([3]; 45 mg/kg i.v. QW×4W): 42%; T/C (%) TW ([3]; 45 mg/kg i.v. QW×4W): 40%; anti-tumor effect (in words) ([3]; 5-FU 15 mg/kg, LPR-2 30 and 45 mg/kg): slightly better than that of the 5-FU; also recorded: a common anti-tumor effect; RTV ([3]; 30 mg/kg i.v. BIW×4W): 2.43 ± 0.19; Tumor weight ([3]; 30 mg/kg i.v. BIW×4W): 720 ± 94 mg; RTV ([3]; 45 mg/kg i.v. QW×4W): 1.85 ± 0.17; Tumor weight ([3]; 45 mg/kg i.v. QW×4W): 625 ± 84 mg; Tumor volume ([3]; day 16 after inoculation, 30 mg/kg i.v. BIW×4W): 454 ± 60 mm^3; Tumor volume ([3]; day 16 after inoculation, 45 mg/kg i.v. QW×4W): 453 ± 56 mm^3; Tumor volume ([3]; day 20 after inoculation, 30 mg/kg i.v. BIW×4W): 524 ± 47 mm^3; Tumor volume ([3]; day 20 after inoculation, 45 mg/kg i.v. QW×4W): 490 ± 73 mm^3; Tumor volume ([3]; day 23 after inoculation, 30 mg/kg i.v. BIW×4W): 622 ± 37 mm^3; Tumor volume ([3]; day 23 after inoculation, 45 mg/kg i.v. QW×4W): 549 ± 83 mm^3; Tumor volume ([3]; day 27 after inoculation, 30 mg/kg i.v. BIW×4W): 643 ± 45 mm^3; Tumor volume ([3]; day 27 after inoculation, 45 mg/kg i.v. QW×4W): 589 ± 91 mm^3; Tumor volume ([3]; day 30 after inoculation, 30 mg/kg i.v. BIW×4W): 689 ± 57 mm^3; Tumor volume ([3]; day 30 after inoculation, 45 mg/kg i.v. QW×4W): 584 ± 87 mm^3; Tumor volume ([3]; day 34 after inoculation, 30 mg/kg i.v. BIW×4W): 761 ± 82 mm^3; Tumor volume ([3]; day 34 after inoculation, 45 mg/kg i.v. QW×4W): 608 ± 89 mm^3; Tumor volume ([3]; day 37 after inoculation, 30 mg/kg i.v. BIW×4W): 899 ± 97 mm^3; Tumor volume ([3]; day 37 after inoculation, 45 mg/kg i.v. QW×4W): 699 ± 102 mm^3; Tumor volume ([3]; day 41 after inoculation, 30 mg/kg i.v. BIW×4W): 995 ± 126 mm^3; Tumor volume ([3]; day 41 after inoculation, 45 mg/kg i.v. QW×4W): 733 ± 93 mm^3; TGD (to 1,000 mm^3) ([4]; 30 mg/kg i.v. BIW×4W): >7; T/C (%) RTV ([4]; 30 mg/kg i.v. BIW×4W): 10%; T/C (%) TW ([4]; 30 mg/kg i.v. BIW×4W): 8%; TGD (to 1,000 mm^3) ([4]; 45 mg/kg i.v. QW×4W): >7; T/C (%) RTV ([4]; 45 mg/kg i.v. QW×4W): 11%; T/C (%) TW ([4]; 45 mg/kg i.v. QW×4W): 10%; RTV ([4]; 30 mg/kg i.v. BIW×4W): 0.94 ± 0.11; Tumor weight ([4]; 30 mg/kg i.v. BIW×4W): 102 ± 15 mg; RTV ([4]; 45 mg/kg i.v. QW×4W): 1.05 ± 0.11; Tumor weight ([4]; 45 mg/kg i.v. QW×4W): 129 ± 20 mg; Tumor volume ([4]; day 24 after inoculation, 30 mg/kg i.v. BIW×4W): 140 ± 11 mm^3; Tumor volume ([4]; day 24 after inoculation, 45 mg/kg i.v. QW×4W): 139 ± 11 mm^3; Tumor volume ([4]; day 28 after inoculation, 30 mg/kg i.v. BIW×4W): 131 ± 8 mm^3; Tumor volume ([4]; day 28 after inoculation, 45 mg/kg i.v. QW×4W): 115 ± 8 mm^3; Tumor volume ([4]; day 31 after inoculation, 30 mg/kg i.v. BIW×4W): 134 ± 11 mm^3; Tumor volume ([4]; day 31 after inoculation, 45 mg/kg i.v. QW×4W): 126 ± 10 mm^3; Tumor volume ([4]; day 35 after inoculation, 30 mg/kg i.v. BIW×4W): 124 ± 15 mm^3; Tumor volume ([4]; day 35 after inoculation, 45 mg/kg i.v. QW×4W): 122 ± 13 mm^3; Tumor volume ([4]; day 38 after inoculation, 30 mg/kg i.v. BIW×4W): 131 ± 13 mm^3; Tumor volume ([4]; day 38 after inoculation, 45 mg/kg i.v. QW×4W): 120 ± 13 mm^3; Tumor volume ([4]; day 42 after inoculation, 30 mg/kg i.v. BIW×4W): 122 ± 8 mm^3; Tumor volume ([4]; day 42 after inoculation, 45 mg/kg i.v. QW×4W): 124 ± 9 mm^3; Tumor volume ([4]; day 45 after inoculation, 30 mg/kg i.v. BIW×4W): 131 ± 9 mm^3; Tumor volume ([4]; day 45 after inoculation, 45 mg/kg i.v. QW×4W): 140 ± 11 mm^3; Tumor volume ([4]; day 49 after inoculation, 30 mg/kg i.v. BIW×4W): 128 ± 9 mm^3; Tumor volume ([4]; day 49 after inoculation, 45 mg/kg i.v. QW×4W): 138 ± 14 mm^3; Tumor volume ([4]; day 52 after inoculation, 30 mg/kg i.v. BIW×4W, 30 mg/kg): 127 mm^3 and 127 ± 6 mm^3; Tumor volume ([4]; day 52 after inoculation, 45 mg/kg i.v. QW×4W, 45 mg/kg): 145 mm^3 and 145 ± 14 mm^3
